# Like-named read-outs stand apart in the source and are kept apart here.
# Key:
# [1] = test system: skin; conditions: rabbits
# [2] = molecular target: tyrosinase (Homo sapiens, UniProt P14679); conditions: higher than beta-arbutin; cited from earlier work
# Sequence of tyrosinase (P14679 19-529): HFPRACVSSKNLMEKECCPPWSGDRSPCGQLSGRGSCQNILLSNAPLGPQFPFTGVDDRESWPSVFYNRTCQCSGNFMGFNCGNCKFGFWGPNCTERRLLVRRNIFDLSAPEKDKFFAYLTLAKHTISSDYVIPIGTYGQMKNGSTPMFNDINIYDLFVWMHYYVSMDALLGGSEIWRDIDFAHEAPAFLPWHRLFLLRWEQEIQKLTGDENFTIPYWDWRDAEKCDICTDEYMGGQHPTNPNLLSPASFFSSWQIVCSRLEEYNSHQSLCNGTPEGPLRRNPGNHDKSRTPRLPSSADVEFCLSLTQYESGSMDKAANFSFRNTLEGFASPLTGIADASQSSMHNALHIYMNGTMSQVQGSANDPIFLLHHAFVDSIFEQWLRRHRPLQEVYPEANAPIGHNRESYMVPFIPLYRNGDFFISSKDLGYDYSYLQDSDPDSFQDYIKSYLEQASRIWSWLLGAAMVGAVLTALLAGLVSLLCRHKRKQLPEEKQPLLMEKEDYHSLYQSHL
compound,measurement,setting,value
O=C(O)CO [glycolic acid],skin irritant effect,[1]; glycolic acid applied alone at 10% w/w,mild skin irritant effect
same,skin irritant effect,[1]; glycolic acid applied alone at 30% or 40% w/w,moderate skin irritant
alpha-arbutin [alpha arbutin],stability and efficiency relative to beta-arbutin,[2],50 times
